Where a name gives a salt, the structure may show the parent alone. Read-outs that look alike come from different tables or passages of the source.
Columns and labels:
hMAO B = target: T1, hMAO B (Homo sapiens, UniProt P27338); assay: Fluorometric MAO assay, hMAO B inhibition; format: biochemical; details: mean ± SEM of two independent experiments, read-out: hMAO B %Inh. at 1 µM
T1 sequence (P27338 1-520): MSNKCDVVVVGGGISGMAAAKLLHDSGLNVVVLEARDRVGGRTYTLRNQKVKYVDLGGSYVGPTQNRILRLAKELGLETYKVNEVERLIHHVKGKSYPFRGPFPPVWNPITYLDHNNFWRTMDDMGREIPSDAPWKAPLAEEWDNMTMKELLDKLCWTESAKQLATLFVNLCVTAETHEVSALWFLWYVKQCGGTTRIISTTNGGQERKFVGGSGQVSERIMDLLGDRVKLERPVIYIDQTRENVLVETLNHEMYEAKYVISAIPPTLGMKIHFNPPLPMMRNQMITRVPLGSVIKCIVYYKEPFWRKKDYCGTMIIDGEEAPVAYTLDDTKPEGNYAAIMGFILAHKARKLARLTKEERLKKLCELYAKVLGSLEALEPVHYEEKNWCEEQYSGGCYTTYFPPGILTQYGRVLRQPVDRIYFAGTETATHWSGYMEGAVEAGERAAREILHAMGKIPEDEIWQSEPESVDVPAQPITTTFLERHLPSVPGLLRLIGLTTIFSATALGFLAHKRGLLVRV

[1] = target: BuChE from equine serum (eqBuChE) (Equus caballus, UniProt P81908); assay: biochemical; format: biochemical; details: mean ± SEM, triplicate independent experiments
Sequence of BuChE from equine serum (eqBuChE) (P81908 whole entry): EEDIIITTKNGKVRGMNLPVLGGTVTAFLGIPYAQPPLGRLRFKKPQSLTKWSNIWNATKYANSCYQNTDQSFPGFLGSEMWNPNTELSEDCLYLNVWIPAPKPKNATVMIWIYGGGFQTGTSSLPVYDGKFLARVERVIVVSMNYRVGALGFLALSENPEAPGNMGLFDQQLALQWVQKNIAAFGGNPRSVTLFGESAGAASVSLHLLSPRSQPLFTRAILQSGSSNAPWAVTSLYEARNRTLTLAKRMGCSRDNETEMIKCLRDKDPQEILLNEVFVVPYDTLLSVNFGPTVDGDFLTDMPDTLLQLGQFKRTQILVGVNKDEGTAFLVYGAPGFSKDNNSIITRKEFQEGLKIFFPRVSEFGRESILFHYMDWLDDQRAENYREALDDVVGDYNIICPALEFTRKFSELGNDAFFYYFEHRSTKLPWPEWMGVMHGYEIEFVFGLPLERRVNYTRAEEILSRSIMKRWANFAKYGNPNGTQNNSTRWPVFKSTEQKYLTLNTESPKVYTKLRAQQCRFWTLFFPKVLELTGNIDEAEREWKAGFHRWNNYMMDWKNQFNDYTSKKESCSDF

human H3R = target: T2, human H3R (Homo sapiens, UniProt Q9Y5N1)
T2 construct: expressed in transfected cells; host or cells: HEK293
T2 sequence (Q9Y5N1 whole entry): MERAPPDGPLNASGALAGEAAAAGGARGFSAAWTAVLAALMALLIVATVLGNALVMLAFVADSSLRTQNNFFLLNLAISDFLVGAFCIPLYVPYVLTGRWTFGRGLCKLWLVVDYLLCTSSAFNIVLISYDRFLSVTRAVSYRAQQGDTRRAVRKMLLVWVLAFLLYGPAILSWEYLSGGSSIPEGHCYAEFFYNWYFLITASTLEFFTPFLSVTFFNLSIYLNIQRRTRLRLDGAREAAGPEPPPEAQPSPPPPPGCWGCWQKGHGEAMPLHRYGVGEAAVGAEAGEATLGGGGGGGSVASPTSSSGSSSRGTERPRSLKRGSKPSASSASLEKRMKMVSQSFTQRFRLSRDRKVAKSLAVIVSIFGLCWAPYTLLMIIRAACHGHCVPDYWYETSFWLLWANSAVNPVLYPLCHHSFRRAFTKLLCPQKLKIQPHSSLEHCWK

[2] = target: T3, electric eel AChE (eeAChE) (Electrophorus electricus, UniProt O42275); assay: biochemical; details: triplicate independent experiments
T3 construct: purchased Sigma–Aldrich (Steinheim, Germany)
T3 sequence (O42275 24-633): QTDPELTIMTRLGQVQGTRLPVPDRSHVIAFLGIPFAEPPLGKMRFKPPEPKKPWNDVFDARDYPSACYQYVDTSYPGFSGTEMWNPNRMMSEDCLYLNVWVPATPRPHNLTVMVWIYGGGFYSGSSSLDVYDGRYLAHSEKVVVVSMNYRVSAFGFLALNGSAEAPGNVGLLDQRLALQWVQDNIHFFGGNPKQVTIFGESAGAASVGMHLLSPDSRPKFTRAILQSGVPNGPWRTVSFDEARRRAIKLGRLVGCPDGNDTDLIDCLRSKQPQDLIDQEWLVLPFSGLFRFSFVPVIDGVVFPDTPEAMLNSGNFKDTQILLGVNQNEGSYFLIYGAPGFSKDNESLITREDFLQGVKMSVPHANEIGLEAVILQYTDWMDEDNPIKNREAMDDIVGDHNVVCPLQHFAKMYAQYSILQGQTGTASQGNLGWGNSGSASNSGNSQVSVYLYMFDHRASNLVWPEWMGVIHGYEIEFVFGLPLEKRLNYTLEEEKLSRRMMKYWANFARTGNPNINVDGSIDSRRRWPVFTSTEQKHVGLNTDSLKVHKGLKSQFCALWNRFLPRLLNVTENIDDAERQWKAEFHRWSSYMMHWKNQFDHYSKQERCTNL

hepatoma HepG2 cells = assay: Hepatotoxicity, MTS viability of HepG2 cells; details: 72 h incubation, MTS
Description: Doxorubicin (DX) at the concentration of 1 μM was used as the reference cytostatic drug.
A multifunctional reader EnSpire (PerkinElmer, Waltham, MA, USA) was used to measure the absorbance.

hH3R = details: cited from earlier work
equine BuChE = test system: equine BuChE; set-up: method as in PMID 33991182, PMID 32882609, PMID 28832188, PMID 19222043, PMID 18396354; details: Figure 2; read-out: equineBuChE IC50; cited from earlier work
electric eel AChE = test system: electric eel AChE; set-up: method as in PMID 33991182, PMID 32882609, PMID 28832188, PMID 19222043, PMID 18396354; details: Figure 2; read-out: electric eelAChE IC50; cited from earlier work
human MAO B = details: cited from earlier work
[3] = PAMPA, triplicate
[4] = test system: SH-SY5Y neuroblastoma cells; assay: Neuroprotection against H2O2, LDH necrosis assay; format: cell-based; details: 50 µM, 300 µM H2O2, 24 h
[5] = test system: SH-SY5Y neuroblastoma cells; assay: Neuroprotection against H2O2, MTS viability assay; format: cell-based; details: 50 µM, 300 µM H2O2, 24 h
human BuChE = details: cited from earlier work
human AChE = details: cited from earlier work
[6] = set-up: method as in PMID 32882609; details: Figure 1; cited from earlier work
[7] = read-out: hH3R Ki; values marked *; mean [95% CI]; cited from earlier work
[8] = mean ± SEM, read-out: eeAChE IC50
[9] = values marked *; mean [95% CI]; read-out: hH3R Ki; cited from earlier work
[10] = Figure 2, read-out: humanH3R Ki
[11] = Figure 2, read-out: humanBuChE IC50
[12] = Figure 2, read-out: humanAChE IC50

Compound: O=C(c1ccccc1)c1ccc(OCCCCCCN2CCCCCC2)cc1 [Compound 33, (4-((6-(Azepan-1-yl)hexyl)oxy)phenyl)(phenyl)methanone hydrogen oxalate]
- inhibition at 1 µM (hMAO B): 23%
- IC50 [1]: 1280 ± 38 nM
- Ki (human H3R; [7]): 41 nM
- IC50 [2, 8]: 1810 ± 38 nM

Compound: COc1cccc2c1C(=O)c1c(O)c3c(c(O)c1C2=O)C[C@@](O)(C(=O)CO)C[C@@H]3O[C@H]1C[C@H](N)[C@H](O)[C@H](C)O1 [Doxorubicin, reference compound]
- concentration decreasing HepG2 cell viability (hepatoma HepG2 cells): ≤ 1000 nM

Compound: CC1CCCN(CCCCCOc2ccc(C(=O)c3ccccc3)cc2)C1 (stereo not drawn) [Compound 14, (4-((5-(3-Methylpiperidin-1-yl)pentyl)oxy)phenyl)(phenyl)methanone hydrogen oxalate]
- inhibition at 1 µM (hMAO B): 9%
- IC50 [1]: 3780 ± 61 nM
- Ki (human H3R; [9]): 40 nM
- IC50 [2, 8]: 3180 ± 83 nM

Compound: O=c1c2ccccc2oc2ccc(OCCCCCCN3CCCCCC3)cc12 [compound II]
- Ki (hH3R; [10]): 500 nM
- IC50 (equine BuChE): 610 nM
- IC50 (electric eel AChE): 310 nM
- IC50 (human MAO B; Figure 2, read-out: humanMAOB IC50): 390 nM

Compound: O=C(c1ccccc1)c1cccc(OCCCCCCN2CCCCCC2)c1 [Compound 32, (3-((6-(Azepan-1-yl)hexyl)oxy)phenyl)(phenyl)methanone hydrogen oxalate]
- inhibition at 1 µM (hMAO B): 17%
- IC50 [1]: 616 ± 2 nM
- Ki (human H3R; [9]): 70 nM
- IC50 [2, 8]: 1550 ± 34 nM

Compound: Cn1c(=O)c2c(ncn2C)n(C)c1=O [Caffeine, reference compound]
- Pe ± SD [3]: 15.1 ± 0.4 10^−6 cm/s

Compound: C[C@@H]1NCCc2cc(O)c(O)cc21 [salsolinol, reference compound]
- effect on necrosis (LDH test) [4]: lowered the number of necrotic cells to the control level
- effect on viability (MTS test) [5]: statistically significantly increased the number of living cells

Compound: O=C(c1ccccc1)c1cccc(OCCCCCCN2CCCCC2)c1 [Compound 8, Phenyl (3-((6-(piperidin-1-yl)hexyl)oxy)phenyl)methanone hydrogen oxalate]
- inhibition at 1 µM (hMAO B): 15%
- IC50 [1]: 2100 ± 60 nM
- Ki (human H3R; [9]): 76 nM
- IC50 [2, 8]: 3630 ± 111 nM

Compound: COc1ccc(C(=O)c2cccc(CN(C)Cc3ccccc3)c2)cc1OC [compound V]
- IC50 (human BuChE; [11]): 60700 nM
- IC50 (human AChE; [12]): 460 nM

Compound: CC1CCCN(CCCCCCOc2ccc(C(=O)c3ccccc3)cc2)C1 (stereo not drawn) [Compound 19, (4-((6-(3-Methylpiperidin-1-yl)hexyl)oxy)phenyl)(phenyl)methanone hydrogen oxalate]
- inhibition at 1 µM (hMAO B): 7%
- IC50 [1]: 1980 ± 34 nM
- Ki (human H3R; [9]): 53 nM
- IC50 [2, 8]: 2110 ± 50 nM

Compound: CCN(CC)Cc1cc2c(=O)c3c(O)cccc3oc2cc1OCC=C(C)C [compound III]
- IC50 (equine BuChE): 510 nM
- IC50 (electric eel AChE): 2600 nM

Compound: O=C(c1ccccc1)c1ccc(OCCCCCN2CCCCCC2)cc1 [Compound 28, (4-((5-(Azepan-1-yl)pentyl)oxy)phenyl)(phenyl)methanone hydrogen oxalate]
- inhibition at 1 µM (hMAO B): 29%
- IC50 [1]: 678 ± 7 nM
- Ki (human H3R; [7]): 39 nM
- IC50 ([2]; eeAChE IC50, mean ± SEM): 4630 ± 100 nM

Compound: O=c1c2ccccc2oc2ccc(OCCCCCN3CCCCCC3)cc12 [Compound I]
- Ki (hH3R; Figure 1, read-out: hH3R Ki): 170 nM
- IC50 (human MAO B; Figure 1, read-out: hMAO B IC50): 780 nM
- in vivo activity [6]: significant memory-enhancing effect
- IC50 (human BuChE; Figure 1, read-out: hBuChE IC50): 1280 nM
- IC50 (human AChE; Figure 1, read-out: hAChEI IC50): 390 nM

Compound: CC1CCCN(CCCCCCOc2cccc(C(=O)c3ccccc3)c2)C1 (stereo not drawn) [Compound 18, (3-((6-(3-Methylpiperidin-1-yl)hexyl)oxy)phenyl)(phenyl)methanone hydrogen oxalate]
- inhibition at 1 µM (hMAO B): 27%
- IC50 [1]: 2900 ± 77 nM
- Ki (human H3R; [9]): 110 nM
- IC50 [2, 8]: 2000 ± 30 nM

Compound: c1cc2c(cc1OCCCCCCN1CCCCC1)CN1CCCC1=N2 [compound IV]
- Ki (hH3R; [10]): 110 nM
- IC50 (equine BuChE): 1300 nM
- IC50 (human AChE; [12]): 39.1 nM

Compound: O=C(c1ccccc1)c1ccc(OCCCCCCN2CCCCC2)cc1 [Compound 9, Phenyl (4-((6-(piperidin-1-yl)hexyl)oxy)phenyl)methanone hydrogen oxalate]
- inhibition at 1 µM (hMAO B): 9%
- IC50 [1]: 1780 ± 34 nM
- Ki (human H3R; [9]): 41 nM
- IC50 [2, 8]: 3730 ± 85 nM

Compound: xanthostigmine
- IC50 (human BuChE; [11]): 48 nM
- IC50 (human AChE; [12]): 0.3 nM

— PMC9822066 (Molecules, 2022)
